In one test the target is T1, SV2AWT (Homo sapiens, UniProt Q7L0J3).
T1 construct: expressed in transfected cells; host or cells: HEK293 (ATCC CRL-1573), crude membranes
In words: Competitive displacement of 10 nM 3H-UCB-J, SV2AWT membranes (Fig. 1A). Type of test: binding. The note with it: read-out: Binding of 3H-UCB-J (%), SV2A_WT. As to the method:
(§1) Ligand binding studies were carried out using crude membranes prepared from HEK293 cells (ATCC, CRL-1573) overexpressing mVenus-SV2AWT or SV2AEM. Membranes were prepared either from transiently transfected cells or from baculovirus-infected cells as described previously. Cells were washed with DPBS (Ca^2+ and Mg^2+ free), followed by resuspending in cold SH buffer (10 mM HEPES-Tris pH 7.4, 320 mM sucrose) containing protease inhibitor cocktail (MedChemExpress) to a density of 10^7 cells/ml. This cell suspension was homogenized by passing through a bead homogenizer (Isobiotec) with 10-micron clearance bead on ice. The lysate was then centrifuged at 4000 × g for 5 min at 4 °C, and the supernatant was aliquoted, frozen in liquid nitrogen, and stored at −80 °C. The mVenus fluorescence estimated using fluorescence size-exclusion chromatography (FSEC) was used to normalize expression levels of mVenus-SV2A mutants studied as detailed previously. For all binding studies, membranes containing […] protein (estimated by BCA method) per reaction were used.
(§2) To obtain dose-response curves of studied SV2A ligands, membranes diluted in 0.2 ml binding buffer (50 mM Tris-Cl, pH 7.4, and 2 mM MgCl2) were incubated with indicated concentrations of ligands for 30 min at 4 °C. […] The binding reaction was arrested by trapping membranes on Unifilter-GF/C 96-well filter plates (Revvity) pre-soaked with 0.1%(w/v) polyethyleneimine (PEI). Membranes were then washed four times with 0.2 ml of cold binding buffer, dried, and 40 µl of scintillation liquid was added to each well. Radioactivity was monitored in MicroBeta2 plate counter (Revvity). Estimates for IC50 were obtained from fitting the data to three-parameter dose-response curves using GraphPad Prism 10.

Test [1] addresses T2, SV2A WT, W300A, W666A, D670A (Homo sapiens, UniProt Q7L0J3).
T2 construct: expressed in transfected cells; host or cells: HEK293 (ATCC CRL-1573), crude membranes
In words: Displacement of 10 nM 3H-UCB-J by levetiracetam, binding site mutations (Fig. 2B). The note with it: read-out: Binding of 3H-UCB-J (%), WT. How it is done: as §1, with “Membranes” for “Ligand binding studies were carried out using crude membranes prepared from HEK293 cells (ATCC, CRL-1573) overexpressing mVenus-SV2AWT or SV2AEM. Membranes”
as §2

The subject of test [2] is SV2A WT, W300A, W666A, D670A. The description is as above. Set-up: species or system human. Conditions: Fig. 2B. As to the method: as §1, with “Membranes” for “Ligand binding studies were carried out using crude membranes prepared from HEK293 cells (ATCC, CRL-1573) overexpressing mVenus-SV2AWT or SV2AEM. Membranes”
as §2

For test [3], the target named is T3, SV2A WT and mutants (Homo sapiens, UniProt Q7L0J3, N690A).
T3 construct: expressed in transfected cells; host or cells: HEK293 (ATCC CRL-1573), crude membranes
T3 sequence (Q7L0J3 whole entry N690A): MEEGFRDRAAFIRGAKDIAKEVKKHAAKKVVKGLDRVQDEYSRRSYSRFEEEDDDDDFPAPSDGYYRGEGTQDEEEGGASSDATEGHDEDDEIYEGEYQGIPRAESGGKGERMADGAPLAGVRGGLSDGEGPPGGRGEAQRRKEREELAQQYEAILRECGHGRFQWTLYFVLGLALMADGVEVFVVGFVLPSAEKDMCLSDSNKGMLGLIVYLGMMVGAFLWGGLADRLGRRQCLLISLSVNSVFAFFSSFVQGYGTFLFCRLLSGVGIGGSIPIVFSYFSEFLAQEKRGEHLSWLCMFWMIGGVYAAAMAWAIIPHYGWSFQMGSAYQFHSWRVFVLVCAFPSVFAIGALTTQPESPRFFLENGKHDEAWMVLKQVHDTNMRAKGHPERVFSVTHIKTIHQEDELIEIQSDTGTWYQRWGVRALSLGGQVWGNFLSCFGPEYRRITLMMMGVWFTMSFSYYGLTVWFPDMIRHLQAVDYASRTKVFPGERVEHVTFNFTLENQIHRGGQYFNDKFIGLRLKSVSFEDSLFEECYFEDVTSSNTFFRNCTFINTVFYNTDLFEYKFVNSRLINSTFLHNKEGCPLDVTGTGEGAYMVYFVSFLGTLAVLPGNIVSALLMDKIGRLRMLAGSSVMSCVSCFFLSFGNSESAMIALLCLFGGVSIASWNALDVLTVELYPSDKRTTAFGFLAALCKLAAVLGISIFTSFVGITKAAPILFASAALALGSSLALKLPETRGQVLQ
Kind of test: Relative binding of levetiracetam: 3H-UCB-J (10 nM) binding in presence of 10 µM levetiracetam (Fig. 2C). The note with it: N690A. How it is done: (§3) Data are shown as mean ± s.d.; n = 6 biological replicates. […] Data shown as mean ± s.d.; n = 6 biological replicates. D Superposition of SV2A-apo (gray) and SV2A–Lev (green), showing helix-to-loop transition and inward movement of TM1 in levetiracetam-bound state. […] Source data for (B, C) are provided as a Source data file.
as §1

Test [4] deals with T4, SV2A WT and mutants (Homo sapiens, UniProt Q7L0J3, C693A).
T4 construct: expressed in transfected cells; host or cells: HEK293 (ATCC CRL-1573), crude membranes
T4 sequence (Q7L0J3 whole entry C693A): as the sequence (Q7L0J3 whole entry N690A) above, with A690N, C693A counted along it
The test is described as above. Conditions: C693A; 10 µM levetiracetam; SV2AWT defined as 100%. How it is done:
as §3, §1

The target in test [5] is T5, SV2A WT and mutants (Homo sapiens, UniProt Q7L0J3).
T5 construct: expressed in transfected cells; host or cells: HEK293 (ATCC CRL-1573), crude membranes
T5 sequence (Q7L0J3 whole entry, change not shown): as the sequence (Q7L0J3 whole entry N690A) above, with A690N counted along it
Described as above. Conditions: WT; 10 µM levetiracetam; SV2AWT defined as 100%. How it is done:
as §3, §1

A further test deals with T6, SV2AEM (Homo sapiens, UniProt Q7L0J3).
T6 construct: expressed in transfected cells; host or cells: HEK293 (ATCC CRL-1573), crude membranes (transient transfection or baculovirus)
T6 sequence (Q7L0J3 141-742): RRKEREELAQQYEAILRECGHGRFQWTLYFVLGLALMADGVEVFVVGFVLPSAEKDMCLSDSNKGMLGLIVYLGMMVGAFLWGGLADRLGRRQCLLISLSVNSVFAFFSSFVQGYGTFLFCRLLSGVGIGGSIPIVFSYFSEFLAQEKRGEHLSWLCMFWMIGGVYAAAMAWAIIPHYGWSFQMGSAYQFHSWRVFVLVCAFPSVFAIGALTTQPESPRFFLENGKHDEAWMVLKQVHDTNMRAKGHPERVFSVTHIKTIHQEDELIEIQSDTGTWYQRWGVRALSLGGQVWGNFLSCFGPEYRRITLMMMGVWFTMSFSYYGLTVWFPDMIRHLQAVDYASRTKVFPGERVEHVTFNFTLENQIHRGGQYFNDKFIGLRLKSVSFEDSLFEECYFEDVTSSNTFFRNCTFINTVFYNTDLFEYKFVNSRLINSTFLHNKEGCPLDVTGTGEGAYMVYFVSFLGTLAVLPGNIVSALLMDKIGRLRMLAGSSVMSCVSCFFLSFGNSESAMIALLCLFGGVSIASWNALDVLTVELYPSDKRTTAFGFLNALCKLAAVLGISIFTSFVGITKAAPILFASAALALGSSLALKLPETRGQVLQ
Kind of test: Competitive displacement of 10 nM 3H-UCB-J, SV2AEM membranes (Fig. 1A). Type of test: binding. How it is done: as §1, §2

“And” between values parts separate entries of the source, which are not always exact repeats. Equal values may be shown once.

Usually IC50 stands for the concentration at which inhibition is half-maximal. Low values mean greater potency, high ones weaker potency.

T1 sequence (Q7L0J3 whole entry): as the sequence (Q7L0J3 whole entry N690A) above, with A690N counted along it
T2 sequence (Q7L0J3 whole entry W300A/W666A/D670A): as the sequence (Q7L0J3 whole entry N690A) above, with W300A, W666A, D670A, A690N counted along it

Take `CC[C@@H](C(N)=O)N1CCCC1=O` [levetiracetam]: the remaining activity at 300 µM at SV2AWT (Log [Levetiracetam] (M) -3.523) turned out to be 10.8%. Moreover, the remaining activity at 100 µM at SV2AWT (Log [Levetiracetam] (M) -4.000) stood at 22.8%. Further, the remaining activity at 10 µM at SV2AWT (Log [Levetiracetam] (M) -5.000) is 66.1%; at SV2AEM (read-out: Binding of 3H-UCB-J (%), SV2A_EM, Log [Levetiracetam] (M) -5.000), 53.7%. For the same compound, the remaining activity at 1 µM on SV2AWT (Log [Levetiracetam] (M) -6.000) worked out at 95%. Moreover, the remaining activity at 0.1 µM at SV2AWT (Log [Levetiracetam] (M) -7.000) turned out to be 95.2%. For the same compound, the remaining activity at 0.01 µM at SV2AWT (Log [Levetiracetam] (M) -8.000) was 92.5%. In addition, the 3H-UCB-J binding at 1000 µM in test [1] (Log [Levetiracetam] (M) -3.000) amounted to 6.22%. Also, the 3H-UCB-J binding at 100 µM in test [1] (Log [Levetiracetam] (M) -4.000) is 31.9%. Further, in test [1] (Log [Levetiracetam] (M) -5.523), the 3H-UCB-J binding at 3 µM stood at 73.5%. In test [1] (Log [Levetiracetam] (M) -6.000), the 3H-UCB-J binding at 1 µM was determined as 84.4%. The “reduction of levetiracetam binding by mutating Trp300, Trp666, Asp670” value in test [2] is listed as about 1000 fold. Also, the “effect of mutation on levetiracetam binding” value at SV2A WT and mutants [3] is “enhances levetiracetam binding”. Also, the “Levetiracetam Binding (%)” value is 143.32% and 133.74% and 159.43% and 149.90% and 155.36% and 156.86% at SV2A WT and mutants [3] (10 µM levetiracetam, SV2AWT defined as 100%); 135.59% and 126.18% and 71.93% and 77.61% and 128.23% and 117.60% at SV2A WT and mutants [4]; 102.09% and 117.44% and 93.09% and 74.67% and 113.64% and 99.03% on SV2A WT and mutants [5]. Also, the IC50 on SV2AEM was 9.5 µM. For the same compound, on SV2AEM (competition with 3H-UCB-J), the “binding response of SV2AEM vs wild-type SV2A” value is “comparable to those of wild-type SV2A”.

These data come from publication PMC12663137 (Nature Communications, 2025).
